Assay results reported in PubChem BioAssay AID1259418 (Broad Institute, 2018).
Values joined by “and” are separate entries in the source; they are usually repeats but may differ in a detail not shown here. Equal values may be shown once. Results filed as inconclusive are left out. Active and inactive are the calls of the source.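 How the source made its calls: active means fitted half-maximal concentration of signal decrease at or below twice the sample's top tested concentration; inconclusive means flat curve between -70 and -30 percent, or poor fit; inactive means flat within 30 percent, signal rise, or potency above limit.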

Target: T. gondii ME49Luc in IFN-y HeLa, luciferase, 72 h
Assay: T. gondii growth inhibition with IFN-gamma, dose response, cell-based, ME49Luc, HeLa, luciferase, 72 h (AID 1259418)

Point of comparison: `CCS(=O)(=O)N1CCc2nc(-c3cccc(F)c3)nc(NC3CC3)c2C1`, AC50 31.4 µM. Against it:
- CC(C)Cc1ccc(S(=O)(=O)N2CCC3(CC2)NCCN=C3NCc2cccc(F)c2)cc1 — 6-fold lower, 5.25 µM
- Cc1cc(C(=O)Nc2ccc3c(c2)C(=O)N(C)[C@H]2CC[C@@H](CC(=O)NCc4ccc(-c5ccccc5)cc4)O[C@@H]2CO3)no1 — 1.5-fold lower, 20.8 µM
- O=c1c(O)c(-c2ccc(O)c(O)c2)oc2cc(O)cc(O)c12 — 1.8-fold lower, 17.6 µM
- COc1ccc(CNC2=NCCNC23CCN(S(=O)(=O)c2ccc(C)cc2C)CC3)cc1 — 1.7-fold lower, 18.6 µM
- Fc1ccccc1CSc1nc(NCc2ccccc2)c2ccccc2n1 — 1.8-fold lower, 17.9 µM
- O=C(Cc1cccnc1)N1CC(=O)N2[C@H](C1)[C@@H](c1ccc(/C=C/c3ccccc3)cc1)[C@@H]2CO — 1.6-fold lower, 19.8 µM
- CC(C)CNC(=O)c1nc2c(s1)CCN(C(=O)NCc1ccccc1)CC2 — 2-fold lower, 16.1 µM
- CN(C)CCNC(=O)c1ccc2onc(-c3coc(C4CC4)n3)c2c1 — within 1.5-fold, 21.3 µM
- Cc1nc(OCC(=O)Nc2cccc(F)c2)c2ccccc2n1 — within 1.5-fold, 28.8 µM
- O=C(CC1Nc2c3ccccc3nc(=S)n2C1=O)NCc1ccccc1Cl (stereo unspecified) — within 1.5-fold, 28.7 µM
- C[C@@H]1CN([C@@H](C)CO)C(=O)c2cccc(NC(=O)NC3CCCCC3)c2O[C@@H]1CN(C)Cc1ccc(C(F)(F)F)cc1 — within 1.5-fold, 25.7 µM
- COc1cccc(NC(=O)N2CC(=O)N3[C@H](CO)[C@H](c4ccc(C#CCC5CCCC5)cc4)[C@@H]3C2)c1 — 1.8-fold lower, 17.6 µM
- COc1cc(OC)cc(C(=O)N2CCC3(CC2)Nc2cc(OC)ccc2-n2cccc23)c1 — within 1.5-fold, 30.1 µM
- C[C@H](CO)N1C[C@H](C)[C@H](CN(C)Cc2ccc(Cl)c(Cl)c2)Oc2c(NS(=O)(=O)c3ccc(F)cc3)cccc2C1=O — 1.5-fold lower, 20.9 µM
- CCOc1ccc(-c2nc(CN(c3ccc(OC)cc3)S(=O)(=O)c3ccccc3C)c(C)o2)cc1 — 2.7-fold lower, 11.8 µM
- CN1C(=O)c2cc(NC(=O)Cc3cccs3)ccc2OC[C@@H]2O[C@H](CC(=O)N[C@H]3CCN(Cc4ccccc4)C3)CC[C@@H]21 — 4.2-fold lower, 7.53 µM
- O=C(NCCCN1CCCC1)C1CCN(Cc2cc3ccccc3n2Cc2ccccc2Cl)CC1 — within 1.5-fold, 25.8 µM
- CN(c1ccc(F)cc1)c1nc(-c2ccc(Cl)cc2)nc2ccccc12 — 2.3-fold lower, 13.9 µM
- O=C(Cc1cccnc1)N1CC(=O)N2[C@H](CO)[C@@H](c3ccc(/C=C/c4ccccc4)cc3)[C@@H]2C1 — 1.6-fold lower, 19.3 µM
- CC(C)Cc1ccc(S(=O)(=O)N2CCC3(CC2)NCCN=C3NCc2ccc(Cl)cc2)cc1 — 2.5-fold lower, 12.4 µM
- CCc1ccc(S(=O)(=O)N2CCC3(CC2)NCCN=C3NC2CCCCCC2)cc1 — 6.2-fold lower, 5.05 µM
- CCCNC(=O)N1C[C@@H]2N[C@H](C1)C2c1ccc(-c2ccccc2C)cc1 (stereo partly specified) — 1.7-fold lower, 18.1 µM
- O=S(=O)(c1ccc(Cl)s1)N1CCC2(CC1)NCCN=C2NCc1cc(F)cc(F)c1 — 1.7-fold lower, 18 µM
- COc1ccc(Cc2cnc(N)nc2N)cc1OC — within 1.5-fold, 23.2 µM
- O=C(NCCCN1CCCC1=O)C1CCN(Cc2cc3ccccc3n2Cc2cccc(F)c2)CC1 — within 1.5-fold, 30.3 µM
- O=C(Nc1ccc(-c2nc(-c3ccccc3)co2)cc1)c1cccc(F)c1 — within 1.5-fold, 30.6 µM
- COc1cccc(-c2nc3c(s2)CN(C(=O)Nc2ccc(C)c(F)c2)CC3)c1 — 2.4-fold lower, 13.1 µM
- COCC(=O)N(C[C@H]1N[C@H](CO)[C@@H]1c1ccc(C2=CCCC2)cc1)C1CCCC1 — 1.9-fold lower, 16.3 µM
- O=C(NC1CCCC1)N1CCCCN2[C@H](CO)[C@H](c3ccc(-c4cccnc4)cc3)[C@H]2C1 — within 1.5-fold, 24.1 µM
- Clc1ccc(-c2nc(N3CCC(c4ccccc4)C3)c3ccccc3n2)cc1 (stereo unspecified) — within 1.5-fold, 32.4 µM
- Cc1cccc(-c2ccc([C@@H]3[C@@H](CO)N4C(=O)CN(C(=O)c5ccc6c(c5)OCO6)C[C@H]34)cc2)c1 — 1.7-fold lower, 18.8 µM
- Cc1oc(-c2cccc(Cl)c2)nc1CN(c1ccccc1)S(=O)(=O)c1cccs1 — 3-fold lower, 10.4 µM
- COCC1CN(C(=O)c2ccccc2F)Cc2cnn(CC3CC3)c21 (stereo unspecified) — within 1.5-fold, 35.8 µM
- COc1cccc(C(=O)Nc2ccc3c(c2)C(=O)N(C)[C@@H]2CC[C@H](CC(=O)N[C@H](C)c4ccccc4)O[C@@H]2CO3)c1 — 1.6-fold lower, 19.4 µM
- O=C(CC1CC1)N1CC[C@@H]2[C@@H](CO)Nc3ccc(-c4ccc(F)cc4)cc3[C@@H]21 — within 1.5-fold, 21.1 µM
- Cc1ccc(S(=O)(=O)N2CCC3(CC2)NCCN=C3NC2CCCCCC2)c(C)c1 — 2.2-fold lower, 14.2 µM
- O=S(=O)(c1cccs1)N1CCC2(CC1)NCCN=C2NCc1ccc(C(F)(F)F)cc1 — within 1.5-fold, 23 µM
- Cc1cccc(N2CCN(C(=O)CC3Nc4c5ccccc5nc(=S)n4C3=O)CC2)c1C (stereo unspecified) — within 1.5-fold, 26.9 µM
- Cc1ccc(S(=O)(=O)Nc2ccc3c(c2)C(=O)N([C@@H](C)CO)C[C@H](C)[C@H](CN(C)Cc2ccc(C(F)(F)F)cc2)O3)cc1 — 1.7-fold lower, 18.2 µM
- CC(C)n1c(C(=O)Nc2cccc(F)c2)nc2c1CCN(Cc1ccccc1)C2 — 3.3-fold lower, 9.4 µM
- Cc1cc(Nc2cc(N3CCN(C)CC3)nc(Sc3ccc(NC(=O)C4CC4)cc3)n2)n[nH]1 — 2.3-fold lower, 13.8 µM
- FC(F)(F)C1CN(c2cc(-c3ccccc3)nc3ccccc23)CCO1 (stereo unspecified) — within 1.5-fold, 25.1 µM
- O=C(c1ccco1)N1CCC2(CC1)Nc1ccc(Cl)cc1-n1cccc12 — within 1.5-fold, 32.1 µM
- C=CCN1CCC2(CC1)CC(NCc1ccc(C)s1)c1ccccc1O2 (stereo unspecified) — 2.6-fold lower, 12.1 µM
- C=C(C)[C@@H]1CC[C@]2(C(=O)O)CC[C@]3(C)[C@H](CC[C@@H]4[C@@]5(C)CC[C@H](O)C(C)(C)[C@@H]5CC[C@]43C)[C@@H]12 — within 1.5-fold, 30 µM
- COc1ccc(N(Cc2nc(-c3ccc(C)cc3)oc2C)S(=O)(=O)c2ccc(C)cc2)cc1 — 2.4-fold lower, 13.2 µM
- COc1ccc(-c2nc(NCc3cccnc3)c3ccccc3n2)cc1 — within 1.5-fold, 21.7 µM
- COc1ccccc1C(=O)Nc1ccc(-c2nc(-c3cc(C)ccc3C)co2)cc1 — 6.1-fold lower, 5.13 µM
- CCOc1ccc(-c2nc(CN3CCN(C(=O)Nc4ccccc4)CC3)c(C)o2)cc1 — 1.9-fold lower, 16.9 µM
- COCCCNc1ncnc2c1cnn2-c1cccc(C)c1 — 2.2-fold lower, 14.6 µM
- O=C(Nc1ccc(F)cc1)N1CC(=O)N2[C@@H](CO)[C@@H](c3ccc(-c4cccc(F)c4)cc3)[C@@H]2C1 — 1.7-fold lower, 18.5 µM
- CCCCCCC(C)(C)c1ccc(C2CC(O)CCC2CCCO)c(O)c1 (stereo unspecified) — 3.7-fold lower, 8.47 µM
- Cc1cc(C)cc(S(=O)(=O)N2CCC3(CC2)NCCN=C3NCc2ccc(F)cc2)c1 — 1.5-fold lower, 20.5 µM
- COc1ccccc1N(Cc1nc(-c2ccc(C)cc2)oc1C)S(=O)(=O)c1ccccc1C — 2.1-fold lower, 15.1 µM
- O=S(=O)(c1ccc2c(c1)CCCC2)N1CCC2(CC1)NCCN=C2NC1CCCCCC1 — 3.2-fold lower, 9.95 µM
- CCc1nc(OCC(=O)NCc2ccccc2)c2ccccc2n1 — within 1.5-fold, 21.9 µM
- CC[C@H]1CN2CCC1C[C@@H]2[C@H](O)c1ccnc2ccc(OC)cc12 (stereo partly specified) — 1.6-fold lower, 20 µM
- Cc1ccc(C(=O)Nc2c(C(=O)NCc3ccccn3)[nH]c3ccc(C)cc23)cc1 — within 1.5-fold, 25.3 µM
- COCC(=O)N1CCC2(CC1)CN(Cc1nccs1)CCO2 — 1.8-fold lower, 17.9 µM
- COc1ccc(-n2nnc3c(N4CCN(C(=O)C(=O)c5c[nH]c6ccccc56)CC4)ncnc32)cc1 — 1.5-fold lower, 20.3 µM
- O=C(CCC1N=C2c3ccccc3N=C(SCc3ccccc3F)N2C1=O)NCc1cccs1 (stereo unspecified) — within 1.5-fold, 22.4 µM
- COc1ccc(-c2nc(CN(c3ccc(C)cc3)S(=O)(=O)c3cccs3)c(C)o2)cc1OC — 2.1-fold lower, 15 µM
- Cc1ccc(S(=O)(=O)N2CCC3(CC2)NCCN=C3NCc2ccccc2Cl)cc1C — 2.6-fold lower, 12.2 µM

With `CC(C)CC#Cc1ccc([C@@H]2[C@H](CO)N3C(=O)CN(C(=O)Nc4cc(F)ccc4F)C[C@@H]23)cc1` the AC50 was 12.6 µM and 4.61 µM.
In the case of `COc1ccc(OCC(=O)N2CCC3(CC2)Nc2ccc(Cl)cc2-n2cccc23)cc1`, the AC50 is reported as > 39 µM (inactive).
For `O=C1CN(S(=O)(=O)c2cccc(F)c2)C[C@@H]2[C@@H](c3ccc(C4=CCCC4)cc3)[C@H](CO)N12`, the AC50 was > 39 µM (inactive).
In the case of `COc1ccc(-c2ccc(C3[C@@H]4CN(C(=O)c5ccc(F)cc5)C[C@H]3N4)cc2)cc1` (stereo partly specified), the AC50 is reported as 15.8 µM and 11.3 µM.
For `COc1cccc(S(=O)(=O)N2CCCCN3[C@H](CO)[C@@H](c4ccc(C#CCC(C)C)cc4)[C@@H]3C2)c1`, the AC50 was 5.58 µM and 10.4 µM and 10.5 µM.
In the case of `Cc1ccccc1Cn1c(CN2CCC(C(=O)NCCCN3CCCC3=O)CC2)cc2ccccc21`, the AC50 is reported as > 39 µM (inactive).
For `Cc1cnn(C(C)C(=O)N2CCc3[nH]nc(-c4ccc(F)c(F)c4)c3C2)c1` (stereo unspecified), the AC50 was > 20 µM (inactive).
For `O=C(c1ccc(-n2nc(C(F)(F)F)c3c2CCCC3)cc1)N1CCN(C2CCCCC2)CC1`, the AC50 was 10.1 µM and > 39 µM (inactive).
`COc1cccc(S(=O)(=O)N2CCCCN3[C@H](CO)[C@H](c4ccc(C#CC5CC5)cc4)[C@H]3C2)c1` was tested, and the AC50 was 10.8 µM and 2.78 µM.
`CCc1c(C)sc2c1CCN(Cc1nc(-c3ccc(OC(C)C)cc3)oc1C)C2c1ccccc1` (stereo unspecified) was tested, and the AC50 was > 39 µM (inactive).
With `C[C@@H]1CN([C@@H](C)CO)C(=O)Cc2cc(NS(=O)(=O)c3ccc(Cl)cc3)ccc2O[C@@H]1CN(C)C(=O)Nc1ccc(C(F)(F)F)cc1` the AC50 was 27.9 µM and 13.5 µM.
For `O=C(c1ccc(F)cc1)N1CC(=O)N2[C@H](CO)[C@@H](c3ccc(C#CCC4CCCC4)cc3)[C@@H]2C1`, the AC50 was 17.6 µM and 4.58 µM.
In the case of `O=C(c1ccc(F)cc1)N1CC(=O)N2[C@H](C1)[C@@H](c1ccc(C#CCC3CCCC3)cc1)[C@@H]2CO`, the AC50 is reported as 20.4 µM and 10.1 µM.
With `Cc1ccc(C(=O)N2CCC3(CC2)Nc2cc(F)ccc2-n2cccc23)cc1C` the AC50 was > 39 µM (inactive).
In the case of `CCOc1ccc(-c2nc3c(s2)CN(S(=O)(=O)c2cccc(F)c2)CC3)cc1`, the AC50 is reported as > 39 µM (inactive).
With `COCC(=O)N1[C@H](C#N)[C@H](c2ccc(C#CCC3CCCC3)cc2)[C@@H]1CO` the AC50 was 29.6 µM and 27.8 µM.
With `COc1ccc2c(c1)NC1(CCN(C(=O)c3c(F)cccc3F)CC1)c1cccn1-2` the AC50 was > 39 µM (inactive).
With `COc1ccccc1-c1nc(C)c(-c2ccc(SCc3ccccc3Cl)nn2)s1` the AC50 was > 39 µM (inactive).
For `N#C[C@H]1[C@H](c2ccc(C#Cc3ccccc3F)cc2)[C@@H](CO)N1C(=O)c1cccnc1`, the AC50 was > 39 µM (inactive).
With `O=C(Cc1cccnc1)N1CC(=O)N2[C@@H](CO)[C@H](c3ccc(C4=CCCCC4)cc3)[C@@H]2C1` the AC50 was > 39 µM (inactive).
In the case of `CCc1nc(OCC(=O)Nc2cccc(Br)c2)c2ccccc2n1`, the AC50 is reported as > 39 µM (inactive).
In the case of `C[C@@H]1CN([C@@H](C)CO)C(=O)Cc2cc(NC(=O)C3CCCCC3)ccc2O[C@@H]1CN(C)Cc1ccc(Cl)c(Cl)c1`, the AC50 is reported as 15.1 µM and 5.01 µM.
`Cc1ccccc1Cn1c(CN2CCC(C(=O)N3CCCC3)CC2)cc2ccccc21` was tested, and the AC50 was > 39 µM (inactive).
In the case of `COc1ccc2c(c1)NC1(CCN(C(=O)C3CCCCC3)CC1)c1cccn1-2`, the AC50 is reported as > 39 µM (inactive).
In the case of `O=C(CCC1N=C2c3ccccc3N=C(SCc3ccc(F)cc3)N2C1=O)NCc1ccc(F)cc1` (stereo unspecified), the AC50 is reported as > 39 µM (inactive).
With `COCCC(=O)C1Cc2nc(-c3ccccc3)sc2N1CC1CC1` (stereo unspecified) the AC50 was 27.2 µM and 15.5 µM.
With `O=C(C[C@H]1CC[C@H]2[C@@H](COC[C@@H](O)CN2Cc2ccc(Oc3ccccc3)cc2)O1)N1CCN(c2ccccc2)CC1` the AC50 was 15.2 µM and 32.3 µM.
